The target of assay [1] is T. canadensis GGPP synthase (Taxus canadensis, UniProt Q9ZPM3). Nature of the assay: Kinetic evaluation of recombinant GGPP synthase (standard prenyltransferase assay, double reciprocal plots). The format is biochemical. The settings on record: for relative velocities of the reaction with allylic co-substrates: co-substrate at 12.5 and 25 mM, IPP and Mg^2+ at saturation. Here is the method: The reaction was quenched by the addition of 300 mil of methanol:conc. HCl (4:1, v/v), and the allylic diphosphate products were solvolyzed (50, 51) upon further incubation at 42° C. for 20 min. The resulting solvolysis products were extracted twice with 1 ml pentane, and were either analyzed by liquid scintillation counting (in toluene:ethanol (7:3, v/v) containing 0.4% Omnifluor (DuPont NEN); ^14 C counting efficiency=96.0%) or concentrated on ice under a gentle stream of Ar to […] for further analysis.

Another assay has as its target T1, GGPP synthase proteins (Taxus canadensis, UniProt Q9ZPM3).
T1 construct: values reportedly equal those of recombinant truncated (mature) T. canadensis enzyme
Nature of the assay: Physical properties of GGPP synthase proteins isolated from various Taxus species (Table 1). Format: biochemical, T. canadensis; T. brevifolia; T. cuspidata and T. baccata.

Assay [2] relates to T. canadensis suspension cell cultures. Nature of the assay: Methyl jasmonate induction of suspension cell cultures: paclitaxel in medium and cell mass. The format is cell-based. Here is the method: Suspension cell cultures were treated with methyl jasmonate 7 d after subculture and harvested at 8, 12, 24, 48 or 168 h after elicitation, or immediately before induction. During this 7 d induction period, the wet cell mass increased by about 10% and the paclitaxel concentration in the medium (where the majority of the taxoids accumulate) rose from 2.5 mg/l to 32 mg/I, with the greatest increase occurring after 48 h. The concentration of paclitaxel was measured by calibrated HPLC with UV detection as described in Hezari et al, Arch. Biochem. Biophys., 337:185-190 (1997).

Another assay deals with GGPP synthase mRNA. Nature of the assay: RNA-blot analysis over the time course of methyl jasmonate induction. The format is cell-based, T. canadensis. The settings on record: at 8 h; elevated through at least 48 h. How it is done:
(§1) Total RNA was isolated from T. canadensis suspension cell cultures using the method set forth in Example 1. Equivalent amounts of RNA […] from cells that had been harvested 8, 12, 24, 48, and 168 h after methyl jasmonate induction, as well as RNA isolated from non-induced cells (0 h), were separated by electrophoresis on a formaldehyde-denaturing agarose gel, along with RNA size standards (Promega Corporation, Madison, Wis.). The separated RNA was blotted to nylon membrane by capillary action and then fixed by UV irradiation. Radiolabeled probes corresponding to the full length GGPP synthase coding region (nucleotide 308 to nucleotide 1489 of the nucleic acid sequence set forth in SEQ ID NO:1), and to an internal fragment (nucleotides 173 to 1875 inclusive) of the taxadiene synthase cDNA reported in Wildung, M. R. and Croteau, R. (1996) J. Biol. […] The blot was incubated sequentially with each probe for 16 h at 65° C., then washed twice with 2×SSC at room temperature, and then thrice with 0.5×SSC at 65° C. The blot was imaged using a Bio-Rad GS-525 Molecular Imager® System and Molecular Analyst version 2.1 software.

For another assay, the system named is taxadiene synthase mRNA. The description is as above. Format: cell-based, T. canadensis. The settings on record: at 8 h; elevated through at least 48 h. Here is the method:
as §1

In another assay the test system is GGPP synthase. The experiment in a line: Enzyme activity in cell culture extracts after methyl jasmonate induction. Format: cell-based, T. canadensis. The settings on record: crude extracts, 0-168 h after induction (FIG. 5). Here is the method:
(§2) The same T. canadensis cell cultures used for RNA blot analysis were also used to determine the relative activities of GGPP synthase and taxadiene synthase over the course of methyl jasmonate induction of paclitaxel biosynthesis. […] Particulate material and cellular debris were removed from the homogenates by centrifugation, first at 3000 g, then at 31,000 g, for 20 min at 4° C. Protein concentration in the supernatant used as the enzyme source was estimated by the method of Bradford (Bradford, M. M. (1976) Anal. Biochem. 72:24814 254). GGPP synthase activity was determined by the standard prenyltransferase assay described in Example 4, except that 100 μl of crude extract (150 μg protein) isolated from T. canadensis cell cultures was used as the enzyme source and the reactions were incubated for 10 min. Taxadiene synthase activity was determined by measuring the Mg^2+ -dependent conversion of [1-^3 H1 ]geranylgeranyl diphosphate (15 μM) to the olefin product as described in Hezari, M., Lewis, N. G. and Croteau, R. (1995) Arch. Biochem. Biophys., 322:437-444; […]., Gibson, D. M. and Croteau, R. (1997) Arch. Biochem. Biophys., 337:185-190. In this assay, 500 μl of the crude extract (750 μg protein) was incubated at 3 1° C. for 1 h.

The test system of another assay is taxadiene synthase. The description is as above. The format is cell-based, T. canadensis. The settings on record: crude extracts, 0-168 h after induction (FIG. 5). How it is done: as §2

The results in this text go back to patent US6043072A, “Nucleic acids encoding Taxus geranylgeranyl diphosphate synthase, and methods of use” (Washington State University Research Foundation, priority 1998, dated 2000).

Sequence of T. canadensis GGPP synthase (Q9ZPM3 99-393): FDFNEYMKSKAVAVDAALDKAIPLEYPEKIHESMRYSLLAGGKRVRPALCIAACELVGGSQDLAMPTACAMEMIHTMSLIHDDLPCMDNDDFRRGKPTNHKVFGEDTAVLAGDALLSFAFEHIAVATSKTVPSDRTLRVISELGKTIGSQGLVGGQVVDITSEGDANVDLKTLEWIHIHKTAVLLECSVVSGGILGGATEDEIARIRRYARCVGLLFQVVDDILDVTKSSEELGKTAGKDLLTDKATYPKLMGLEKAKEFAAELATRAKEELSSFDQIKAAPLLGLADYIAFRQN
T1 sequence (Q9ZPM3 99-393): as above

Consider `CC(C)=CCC/C(C)=C/CC/C(C)=C/CO[P@@](=O)(O)OP(=O)(O)O` (stereo in doubt) [FPP, farnesyl diphosphate], for which the “relative velocities of the reaction with allylic co-substrates” value in assay [1] came out at 66%.
For `CC(C)=CCC/C(C)=C/COP(=O)(O)OP(=O)(O)O` [GPP, geranyl diphosphate], the “relative velocities of the reaction with allylic co-substrates” value in assay [1] was 100%.
For the molecule `[Mg+2]` [Mg^2+], the Michaelis constant (Km) amounted to 35 µM in assay [1] (double reciprocal plotting, remaining reactants at saturation) and 35 ± 3 µM on GGPP synthase proteins.
On to `[Mn+2]` [Mn^2+], for which the “support of catalysis as divalent metal ion cofactor” value in assay [1] was “did not support catalysis”.
`CC/C=C\CC1C(=O)CCC1CC(=O)OC` (centres unmarked) [methyl jasmonate]: the “paclitaxel concentration in the medium” value in assay [2] (after 7 d induction period, rose from 2.5 mg/l) is reported as 32 mg/I. The “increase of wet cell mass” value in assay [2] (during 7 d induction period) was “about 10%”. In addition, the “steady state mRNA level of GGPP synthase” value in the assay with GGPP synthase mRNA was “rapid increase”. Further, in the assay on taxadiene synthase mRNA, the “steady state mRNA level of taxadiene synthase” value was “rapid increase”. Also, the “GGPP synthase activity level” value in the assay with GGPP synthase is listed as “rose steadily to 48 h”. In the assay on taxadiene synthase, the “taxadiene synthase activity level” value is “rose steadily to 48 h”.

One may read the Km as the concentration of substrate that gives half-maximal velocity.
